# Measured values published in patent publication US8889874B2, “Imidazolone-chalcone derivatives as potential anticancer agent and process for the preparation thereof” (Council of Scientific and Industrial Research, priority 2010, dated 2014).
# Like-named read-outs stand apart in the source and are kept apart here.
# What was measured:
# Test in all cases: NCI anticancer screen, SRB assay, 48 h
# Format in all cases: cell-based, human
# 786-0 (renal) = test system: 786-0 (renal)
# Method in brief: (§1)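 Sulforhodamine B protein assay read cell growth after 48 h of continuous compound exposure. Dose-response curves per cell line used at least five 10-fold-diluted concentrations, within a panel of fifty-three human lines from nine tumour types.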
# A498 (renal) = test system: A498 (renal)
# Method in brief: as §1
# [1] = test system: A549/ATCC (non-small cell lung)
# Method in brief: as §1
# BT-549 (breast) = test system: BT-549 (breast)
# Method in brief: as §1
# CAKI-1 (renal) = test system: CAKI-1 (renal)
# Method in brief: as §1
# [2] = test system: EKVX (non-small cell lung)
# Method in brief: as §1
# HCT-116 (colon) = test system: HCT-116 (colon)
# Method in brief: as §1
# HCT-15 (colon) = test system: HCT-15 (colon)
# Method in brief: as §1
# HS 578T (breast) = test system: HS 578T (breast)
# Method in brief: as §1
# HT29 (colon) = test system: HT29 (colon)
# Method in brief: as §1
# [3] = test system: K-562 (leukemia cell line)
# Method in brief: as §1
# KM12 (colon) = test system: KM12 (colon)
# Method in brief: as §1
# LOX IMVI (melanoma) = test system: LOX IMVI (melanoma)
# Method in brief: as §1
# MALME-3M (melanoma) = conditions: MALME-3M
# Method in brief: as §1
# MCF7 (breast) = test system: MCF7 (breast)
# Method in brief: as §1
# MDA-MB-231/ATCC (breast) = test system: MDA-MB-231/ATCC (breast)
# Method in brief: as §1
# MDA-MB-435 (melanoma) = test system: MDA-MB-435 (melanoma)
# Method in brief: as §1
# [4] = test system: NCI-H226 (non-small cell lung)
# Method in brief: as §1
# [5] = test system: NCI-H23 (non-small cell lung)
# Method in brief: as §1
# [6] = test system: NCI-H322M (non-small cell lung)
# Method in brief: as §1
# [7] = test system: NCI-H522 (non-small cell lung)
# Method in brief: as §1
# OVCAR-3 (ovarian) = test system: OVCAR-3 (ovarian)
# Method in brief: as §1
# OVCAR-4 (ovarian) = test system: OVCAR-4 (ovarian)
# Method in brief: as §1
# OVCAR-8 (ovarian) = test system: OVCAR-8 (ovarian)
# Method in brief: as §1
# PC-3 (prostate) = conditions: for GI50: read-out: GI50
# Method in brief: as §1
# [8] = test system: RPMI-8226 (leukemia cell line)
# Method in brief: as §1
# SF-268 (CNS) = test system: SF-268 (CNS)
# Method in brief: as §1
# SF-295 (CNS) = test system: SF-295 (CNS)
# Method in brief: as §1
# SK-MEL-5 (melanoma) = test system: SK-MEL-5 (melanoma)
# Method in brief: as §1
# SK-OV-3 (ovarian) = test system: SK-OV-3 (ovarian)
# Method in brief: as §1
# SNB-75 (CNS) = test system: SNB-75 (CNS)
# Method in brief: as §1
# SW-620 (colon) = test system: SW-620 (colon)
# Method in brief: as §1
# TD-47D (breast) = test system: TD-47D (breast)
# Method in brief: as §1
# TK-10 (renal) = test system: TK-10 (renal)
# Method in brief: as §1
# UACC-257 (melanoma) = test system: UACC-257 (melanoma)
# Method in brief: as §1
# UACC-62 (melanoma) = test system: UACC-62 (melanoma)
# Method in brief: as §1
# [9] = 48 h exposure, SRB, read-out: GI50
compound,measurement,setting,value
"COc1ccc(-c2cn(-c3cccc(C(=O)/C=C/c4cc(OC)c(OC)c(OC)c4)c3)c(=O)[nH]2)cc1 [5b, 4-(4-methoxyphenyl)-1-3-[(E)-3-(3,4,5-trimethoxyphenyl)-2-propenoyl]phenyl-2,3-dihydro-1H-2-imidazolone]",pGI50 (-log of molar concentration causing 50% inhibition of net cell growth),786-0 (renal),5.79
same,GI50,786-0 (renal); [9],1610 nM
same,pGI50 (-log of molar concentration causing 50% inhibition of net cell growth),A498 (renal),5.38
same,GI50,A498 (renal); [9],4.21 µM
same,pGI50 (-log of molar concentration causing 50% inhibition of net cell growth),[1],4.93
same,GI50,[1]; [9],11.8 µM
same,pGI50 (-log of molar concentration causing 50% inhibition of net cell growth),BT-549 (breast),5.59
same,GI50,BT-549 (breast); [9],2590 nM
same,pGI50 (-log of molar concentration causing 50% inhibition of net cell growth),CAKI-1 (renal),5.52
same,GI50,CAKI-1 (renal); [9],3.05 µM
same,pGI50 (-log of molar concentration causing 50% inhibition of net cell growth),[2],5.38
same,GI50,[2]; [9],4.2 µM
same,pGI50 (-log of molar concentration causing 50% inhibition of net cell growth),HCT-116 (colon),6.43
same,GI50,HCT-116 (colon); [9],370 nM
same,pGI50 (-log of molar concentration causing 50% inhibition of net cell growth),HCT-15 (colon),5.86
same,GI50,HCT-15 (colon); [9],1380 nM
same,pGI50 (-log of molar concentration causing 50% inhibition of net cell growth),HS 578T (breast),5.47
same,GI50,HS 578T (breast); [9],3.39 µM
same,pGI50 (-log of molar concentration causing 50% inhibition of net cell growth),HT29 (colon),5.89
same,GI50,HT29 (colon); [9],1280 nM
same,pGI50 (-log of molar concentration causing 50% inhibition of net cell growth),[3],5.90
same,GI50,[3]; [9],1270 nM
same,pGI50 (-log of molar concentration causing 50% inhibition of net cell growth),KM12 (colon),5.85
same,GI50,KM12 (colon); [9],1420 nM
same,pGI50 (-log of molar concentration causing 50% inhibition of net cell growth),LOX IMVI (melanoma),6.14
same,GI50,LOX IMVI (melanoma); [9],720 nM
same,pGI50 (-log of molar concentration causing 50% inhibition of net cell growth),MALME-3M (melanoma),5.75
same,GI50,MALME-3M (melanoma); [9],1790 nM
same,pGI50 (-log of molar concentration causing 50% inhibition of net cell growth),MCF7 (breast),6.36
same,GI50,MCF7 (breast); [9],440 nM
same,pGI50 (-log of molar concentration causing 50% inhibition of net cell growth),MDA-MB-231/ATCC (breast),5.26
same,GI50,MDA-MB-231/ATCC (breast); [9],5.48 µM
same,pGI50 (-log of molar concentration causing 50% inhibition of net cell growth),MDA-MB-435 (melanoma),5.73
same,GI50,MDA-MB-435 (melanoma); [9],1860 nM
same,pGI50 (-log of molar concentration causing 50% inhibition of net cell growth),[4],4.45
same,GI50,[4]; [9],35.2 µM
same,pGI50 (-log of molar concentration causing 50% inhibition of net cell growth),[5],5.79
same,GI50,[5]; [9],1630 nM
same,pGI50 (-log of molar concentration causing 50% inhibition of net cell growth),[6],5.58
same,GI50,[6]; [9],2660 nM
same,pGI50 (-log of molar concentration causing 50% inhibition of net cell growth),[7],5.73
same,GI50,[7]; [9],1850 nM
same,pGI50 (-log of molar concentration causing 50% inhibition of net cell growth),OVCAR-3 (ovarian),5.75
same,GI50,OVCAR-3 (ovarian); [9],1780 nM
same,pGI50 (-log of molar concentration causing 50% inhibition of net cell growth),OVCAR-4 (ovarian),5.45
same,GI50,OVCAR-4 (ovarian); [9],3.57 µM
same,pGI50 (-log of molar concentration causing 50% inhibition of net cell growth),OVCAR-8 (ovarian),5.60
same,GI50,OVCAR-8 (ovarian); [9],2530 nM
same,pGI50 (-log of molar concentration causing 50% inhibition of net cell growth),PC-3 (prostate); PC-3,5.21
same,GI50,"PC-3 (prostate); PC-3, 48 h exposure, SRB",6.22 µM
same,GI50,"PC-3 (prostate); one prostate cancer cell line (PC-3), exposure at least 48 hrs",6.22 µM
same,pGI50 (-log of molar concentration causing 50% inhibition of net cell growth),[8],6.04
same,GI50,[8]; [9],920 nM
same,pGI50 (-log of molar concentration causing 50% inhibition of net cell growth),SF-268 (CNS),5.49
same,GI50,SF-268 (CNS); [9],3.21 µM
same,pGI50 (-log of molar concentration causing 50% inhibition of net cell growth),SF-295 (CNS),5.31
same,GI50,SF-295 (CNS); [9],4.95 µM
same,pGI50 (-log of molar concentration causing 50% inhibition of net cell growth),SK-MEL-5 (melanoma),5.69
same,GI50,SK-MEL-5 (melanoma); [9],2030 nM
same,pGI50 (-log of molar concentration causing 50% inhibition of net cell growth),SK-OV-3 (ovarian),5.34
same,GI50,SK-OV-3 (ovarian); [9],4.6 µM
same,pGI50 (-log of molar concentration causing 50% inhibition of net cell growth),SNB-75 (CNS),5.34
same,GI50,SNB-75 (CNS); [9],4.59 µM
same,pGI50 (-log of molar concentration causing 50% inhibition of net cell growth),SW-620 (colon),6.35
same,GI50,SW-620 (colon); [9],450 nM
same,pGI50 (-log of molar concentration causing 50% inhibition of net cell growth),TD-47D (breast),5.42
same,GI50,TD-47D (breast); [9],3.84 µM
same,pGI50 (-log of molar concentration causing 50% inhibition of net cell growth),TK-10 (renal),5.52
same,GI50,TK-10 (renal); [9],3.04 µM
same,pGI50 (-log of molar concentration causing 50% inhibition of net cell growth),UACC-257 (melanoma),5.52
same,GI50,UACC-257 (melanoma); [9],3.04 µM
same,pGI50 (-log of molar concentration causing 50% inhibition of net cell growth),UACC-62 (melanoma),5.69
same,GI50,UACC-62 (melanoma); [9],2060 nM
